Measurements published in PMC3718762, “Differential Disruption of EWS-FLI1 Binding by DNA-Binding Agents” (PLoS ONE, 2013).
Structures can show the parent of a compound that is named as a salt. Where two headings read alike, the source gives them in different places.

Tests used:
p53 = target: T1, p53 (Homo sapiens, UniProt P04637); experiment: AlphaScreen proximity assay (counterscreen), binding of recombinant p53 to cognate DNA oligo
T1 construct: made in house; host or cells: bacteria (pGex-6P-1-p53); plasmid was a gift from Dr. Guangchao Sui
T1 sequence (P04637 whole entry, species assumed): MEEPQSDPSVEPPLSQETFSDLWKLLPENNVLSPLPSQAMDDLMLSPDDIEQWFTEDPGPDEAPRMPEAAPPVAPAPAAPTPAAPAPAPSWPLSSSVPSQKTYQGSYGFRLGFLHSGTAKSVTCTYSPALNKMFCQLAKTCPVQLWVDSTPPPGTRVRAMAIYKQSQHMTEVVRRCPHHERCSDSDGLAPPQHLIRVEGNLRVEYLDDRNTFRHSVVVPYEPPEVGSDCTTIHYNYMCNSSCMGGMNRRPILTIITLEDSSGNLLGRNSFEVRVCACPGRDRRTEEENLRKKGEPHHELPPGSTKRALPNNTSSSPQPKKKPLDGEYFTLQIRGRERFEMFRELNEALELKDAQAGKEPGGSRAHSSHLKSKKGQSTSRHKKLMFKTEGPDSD
Excerpt: An AlphaScreen assay for binding of recombinant EWS-FLI1 to DNA was previously described. Briefly, recombinant EWS-FLI1 and p53 were synthesized in bacteria transformed with pGex-6P-1-EWS-FLI1 or pGex-6P-1-p53, and bound to AlphaScreen acceptor beads. A biotinylated oligonucleotide containing two copies of the EWS-FLI1 binding motif or p53 binding motifs was bound to AlphaScreen donor beads. For EWS-FLI1, the oligo sequence was: […]. The p53 binding oligo sequence was: […]. This assay was used to screen 5,200 compounds, as previously described. IC50 values were calculated with the GraphPad Prism software package.
We developed a homogeneous AlphaScreen assay to assess the binding of recombinant EWS-FLI1 to DNA [18]. A parallel assay assessing binding of p53 to DNA was used as a counterscreen. Briefly, in these proximity assays, recombinant GST-EWS-FLI1 or GST-p53 was bound to glutathione-conjugated AlphaScreen acceptor beads, and a synthetic biotinylated oligonucleotide (oligo) containing tandem EWS-FLI1 or p53 binding sites was bound to streptavidin-conjugated AlphaScreen donor beads. Binding of GST-EWS-FLI1 or GST-p53 to the cognate oligo allows singlet oxygen transfer from donor to acceptor beads when excited at 680 nm, with resulting light emission between 520–620 nm.

EWS-FLI1 = experiment: AlphaScreen proximity assay, binding of recombinant EWS-FLI1 to cognate DNA oligo; conditions: for IC50: read-out: IC50 EWS-FLI1, disruption of recombinant EWS-FLI1 binding to DNA; for Disruption of EWS-FLI1 binding compared with p53 binding in the parallel assays: EWS-FLI1 versus p53
[1] = system: EWS-FLI1 downstream targets; parameters: method as in PMID 21403840, PMID 21653923; conditions: prior studies ref [11], [12]; cited from earlier work
Ewing sarcoma cells = system: Ewing sarcoma cells; parameters: method as in PMID 21403840, PMID 21653923; conditions: prior studies ref [11], [12]; cited from earlier work
NR0B1 promoter = experiment: NR0B1-Luc firefly luciferase reporter assay in A673 cells; assay type: cell-based, human; conditions: A673 cells, NR0B1-Luc versus UbC-RL
Excerpt: The NR0B1 promoter was amplified from human genomic DNA using the 5′ primer- […] and 3′ primer - […]. NR0B1 promoter amplicon was cloned into the NheI and HindIII sites in the pGL.3Basic vector. The 5′ primer-[…] was used to amplify a truncated NR0B1 promoter in which the entire EWS-FLI1 binding region (GGAA repeats) was deleted to construct pGL.3b-NR0B1del. All constructs were confirmed by sequencing. All other plasmids were previously described.
Ewing sarcoma A673 cells at 50% confluence in 100 mm dishes were transfected with both 5.8 µg of pGL.3b-NR0B1 and 0.2 µg of pGL.3b-Ubc-RL reporter plasmids as above. Eight hours post-transfection, cells were trypsinized and 600 ul (2×10^5) of cells were added to each well of 24 well plates. 5 µl of different concentration of compounds or DMSO control were added to each well. Each treatment was performed in triplicate. Cells were incubated for 16 hours, then cells were lysed in 100 µl of lysis buffer and 10 µl of cell lysate was used for the dual luciferase assay. Renilla luciferase activity was used as an internal control for normalization of nonspecific transcriptional inhibition or cytotoxic effects. Experiments were repeated three times. IC50 values were calculated using Prism (Graphpad).
To determine the effect of compounds on EWS-FLI1 activity in cells, we used a reporter assay comprised of the NR0B1 promoter, a prototypical EWS-FLI1-regulated gene, driving expression of firefly luciferase. Renilla luciferase driven by the Ubiquitin C promoter (UbC-RL) was used as an internal control. Confirming prior studies, the NR0B1 promoter was verified to be highly responsive to EWS-FLI1, whereas the UbC promoter activity was not subject to regulation by EWS-FLI1 (Figure S1).

[2] = AlphaScreen, disruption of recombinant p53 binding to DNA, read-out: IC50 p53

| IC50 (p53; [2]) [nM] | Molecule | IC50 (EWS-FLI1) [nM] | further results |
| --- | --- | --- | --- |
|  | c1nc2nc(Nc3ccc(N4CCOCC4)cc3)nc(NC3CCCCC3)c2[nH]1 [Reversine] | 2420 | IC50 (p53): 2710 nM |
| 203 | CC(C)/N=c1\cc2n(-c3ccc(Cl)cc3)c3ccccc3nc-2cc1Nc1ccc(Cl)cc1 [Clofazimine] | 202 |  |
| 6060 | CCN(CC)CCCC(C)Nc1c2ccc(Cl)cc2nc2ccc(OC)cc12 (stereo not drawn) [Quinacrine HCl] | 7030 |  |
|  | CC(C)=CC[C@@H](O)C1=CC(=O)c2c(O)ccc(O)c2C1=O [Shikonin] | 600 | IC50 (p53): 633 nM |
|  | mithramycin |  | Expression of EWS-FLI1 downstream targets [1]: reduced; Growth of Ewing sarcoma cells (Ewing sarcoma cells): inhibited |
| > 10000 | O=c1c2ccccc2[se]n1-c1ccccc1 [Ebselen] | 631 | Separation of inhibition of the NR0B1 and UbC reporters (NR0B1 promoter): modulated the NR0B1 and UbC reporters equally |
|  | COc1cccc2c1C(=O)c1c(O)c3c(c(O)c1C2=O)C[C@@](O)(C(=O)CO)C[C@@H]3O[C@H]1C[C@H](N)[C@@H](O)[C@H](C)O1 [Epirubicin] | 42 | Separation of inhibition of the NR0B1 and UbC reporters (NR0B1 promoter): no separation; IC50 (p53): 389 nM |
| 1200 | CC(C)[C@H](CO)Nc1nc(Nc2cc(N)cc(Cl)c2)c2ncn(C(C)C)c2n1 [Aminopurvalanol A] | 1830 |  |
|  | COc1cc2c(cc1O)CCN[C@]21CS[C@@H]2c3c(OC(C)=O)c(C)c4c(c3[C@H](COC1=O)N1[C@@H]2[C@H]2c3c(cc(C)c(OC)c3O)C[C@@H]([C@@H]1O)N2C)OCO4 [ET-743, trabectedin] |  | Expression of EWS-FLI1 downstream targets [1]: reduced; Growth of Ewing sarcoma cells (Ewing sarcoma cells): inhibited |
|  | Verteporfin | 342 |  |
|  | COc1ccc2[nH]c([S+]([O-])Cc3ncc(C)c(OC)c3C)nc2c1 (stereo not drawn) [Omeprazole] | 7330 |  |
| 5290 | CCCCc1oc2ccccc2c1C(=O)c1cc(I)c(OCCN(CC)CC)c(I)c1 [Amiodarone HCl] |  |  |
|  | COc1cccc2c1C(=O)c1c(O)c3c(c(O)c1C2=O)C[C@@](O)(C(=O)CO)C[C@@H]3O[C@H]1C[C@H](N)[C@H](O)[C@H](C)O1 [Doxorubincin] | 344 | Separation of inhibition of the NR0B1 and UbC reporters (NR0B1 promoter): no separation; IC50 (p53): 1220 nM; Disruption of EWS-FLI1 binding compared with p53 binding in the parallel assays (EWS-FLI1): disrupt both EWS-FLI1 and p53 binding similarly |
| 2810 | Cn1c2ccccc2c2c3c(c4c5ccccc5n(CCC#N)c4c21)CNC3=O [Go 6976] |  |  |
|  | COc1cccc2c1C(=O)c1c(O)c3c(c(O)c1C2=O)C[C@@](O)(C(C)=O)C[C@@H]3O[C@H]1C[C@H](N)[C@H](O)[C@H](C)O1 [Daunorubicin] | 4480 | Disruption of EWS-FLI1 binding compared with p53 binding in the parallel assays (EWS-FLI1): disrupt both EWS-FLI1 and p53 binding similarly |
| > 10000 | CCOc1ccc(C=C2SC(=O)N(CCN)C2=O)cc1.Cl [Erk inihibitor] | 3350 | Separation of inhibition of the NR0B1 and UbC reporters (NR0B1 promoter): modulated the NR0B1 and UbC reporters equally |

| Molecule | IC50 (p53; [2]) [nM] | IC50 (EWS-FLI1) [nM] | further results |
| --- | --- | --- | --- |
| CN(C)c1ccc(/C=C2\C(=O)Nc3ccccc32)cc1 [DMBI] | 3780 | 3370 |  |
| CC(=O)[O][Hg][c]1ccccc1 [Phenylmericuric Acetate] | 25 | 16 |  |
| CCOc1ccc2c(c1)C(C)=CC(C)(C)N2 [Ethoxyqiun] | 484 | 464 |  |
| N.N.[Cl][Pt][Cl] [Cisplatin] | 8870 | 5390 | Disruption of EWS-FLI1 binding compared with p53 binding in the parallel assays (EWS-FLI1): disrupt both EWS-FLI1 and p53 binding similarly |
